From patent US11358952B2, “Substituted 4-aminoisoindoline-1,3-dione compounds, compositions thereof, and methods of treatment therewith” (Celgene Corporation, priority 2018, dated 2022)

system: SU-DHL-4 cell line; assay: SU-DHL-4 cell proliferation assay (Cell Titer-Glo viability); type: cell-based; details: Homo sapiens; cell viability IC50 activity level, DLBCL cell line SU-DHL-4, 120 hours post-treatment; read-out: SU-DHL-4 Act
Procedure, shortened: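 SU-DHL-4 cells (500/well, RPMI-1640 + 10% FBS) exposed to 20-point compound dilutions (0.5 nM–10 μM, 0.1% DMSO) for 120 h at 37°C, 5% CO2. Viability measured by Cell Titer-Glo luminescence at t0 and at 120 h. IC50 is the concentration giving 50% of DMSO control, from a four-parameter logistic fit.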

Row | Structure (SMILES) | IC50 [µM]
1 | NC(=O)c1ncccc1N1CCN(Cc2ccc(CNc3cccc4c3C(=O)N(C3CCC(=O)NC3=O)C4=O)c(F)c2)CC1 (stereo not shown) [Cpd 180, 3-(4-(4-((2-(2,6-dioxopiperidin-3-yl)-1,3-dioxoisoindolin-4-ylamino)methyl)-3-fluorobenzyl)piperazin-1-yl)picolinamide] | 0.2 to 0.5
2 | CCS(=O)(=O)N1CCN(Cc2ccc(CNc3cccc4c3C(=O)N(C3CCC(=O)NC3=O)C4=O)cc2)CC1 (stereo not shown) [Cpd 133, 2-(2,6-dioxopiperidin-3-yl)-4-(4-((4-(ethylsulfonyl)piperazin-1-yl)methyl)benzylamino)isoindoline-1,3-dione] | 0.2 to 0.5
3 | O=C1CCC(N2C(=O)c3cccc(NCc4ccc(CN5CCC(c6ccccn6)CC5)cc4)c3C2=O)C(=O)N1 (stereo not shown) [Cpd 31, 2-(2,6-dioxopiperidin-3-yl)-4-(4-((4-(pyridin-2-yl)piperidin-1-yl)methyl)benzylamino)isoindoline-1,3-dione] | 0.2 to 0.5
4 | Cc1cc(CNc2cccc3c2C(=O)N(C2CCC(=O)NC2=O)C3=O)ccc1CN1CC(c2ccccn2)C1 (stereo not shown) [Cpd 81, 2-(2,6-dioxopiperidin-3-yl)-4-(3-methyl-4-((3-(pyridin-2-yl)azetidin-1-yl)methyl)benzylamino)isoindoline-1,3-dione] | 0.2 to 0.5
5 | O=C1CCC(N2C(=O)c3cccc(NCc4ccc(CN5CC(c6cccc(F)c6)C5)cc4)c3C2=O)C(=O)N1 (stereo not shown) [Cpd 13, 2-(2,6-dioxopiperidin-3-yl)-4-(4-((3-(3-fluorophenyl)azetidin-1-yl)methyl)benzylamino)isoindoline-1,3-dione] | 0.501 to 0.75
6 | COC1CC2CCC(C1)N2Cc1ccc(CNc2cccc3c2C(=O)N(C2CCC(=O)NC2=O)C3=O)cc1 [Cpd 35, 2-(2,6-dioxopiperidin-3-yl)-4-(4-(((1R,3r,5S)-3-methoxy-8-azabicyclo[3.2.1]octan-8-yl)methyl)benzylamino)isoindoline-1,3-dione] | 0.751 to 1
7 | Cc1cc(CNc2cccc3c2C(=O)N(C2CCC(=O)NC2=O)C3=O)ccc1CN1CCN(C(C)C)CC1 (stereo not shown) [Cpd 69, 2-(2,6-dioxopiperidin-3-yl)-4-(4-((4-isopropylpiperazin-1-yl)methyl)-3-methylbenzylamino)isoindoline-1,3-dione] | < 0.2
8 | O=C1CCC(N2C(=O)c3cccc(NCc4ccc(CN5CCC6(CCCO6)CC5)cc4F)c3C2=O)C(=O)N1 (stereo not shown) [Cpd 144, 4-(4-(1-oxa-8-azaspiro[4.5]decan-8-ylmethyl)-2-fluorobenzylamino)-2-(2,6-dioxopiperidin-3-yl)isoindoline-1,3-dione] | < 0.2
9 | Cc1cc(CNc2cccc3c2C(=O)N(C2CCC(=O)NC2=O)C3=O)ccc1CN1CCN(c2ccnc(C(N)=O)c2)CC1 (stereo not shown) [Cpd 190, 4-(4-(4-((2-(2,6-dioxopiperidin-3-yl)-1,3-dioxoisoindolin-4-ylamino)methyl)-2-methylbenzyl)piperazin-1-yl)picolinamide] | 0.2 to 0.5
10 | Cc1cc(CN2CC(c3ccc(C#N)cc3)C2)ccc1CNc1cccc2c1C(=O)N(C1CCC(=O)NC1=O)C2=O (stereo not shown) [Cpd 105, 4-(1-(4-((2-(2,6-dioxopiperidin-3-yl)-1,3-dioxoisoindoliln-4-ylamino)methyl)-3-methylbenzyl)azetidin-3-yl)benzonitrile] | < 0.2
11 | NC(=O)c1ccc(N2CCN(Cc3ccc(CNc4cccc5c4C(=O)N(C4CCC(=O)NC4=O)C5=O)cc3F)CC2)cc1 (stereo not shown) [Cpd 141, 4-(4-(4-((2-(2,6-dioxopiperidin-3-yl)-1,3-dioxoisoindolin-4-ylamino)methyl)-2-fluorobenzyl)piperazin-1-yl)benzamide] | < 0.2
12 | CC(C)(C)N1CCN(Cc2ccc(CNc3cccc4c3C(=O)N(C3CCC(=O)NC3=O)C4=O)c(F)c2)CC1 (stereo not shown) [Cpd 95, 4-(4-((4-tert-butylpiperazin-1-yl)methyl)-2-fluorobenzylamino)-2-(2,6-dioxopiperidin-3-yl)isoindoline-1,3-dione] | < 0.2
13 | O=C1CCC(N2C(=O)c3cccc(NCc4ccc(CN5CC6(COC6)C5)cc4F)c3C2=O)C(=O)N1 (stereo not shown) [Cpd 226, 4-(4-(2-oxa-6-azaspiro[3.3]heptan-6-ylmethyl)-2-fluorobenzylamino)-2-(2,6-dioxopiperidin-3-yl)isoindoline-1,3-dione] | 0.2 to 0.5
14 | CN(C)C(=O)c1ccc(N2CCN(Cc3ccc(CNc4cccc5c4C(=O)N(C4CCC(=O)NC4=O)C5=O)cc3F)CC2)cn1 (stereo not shown) [Cpd 142, 5-(4-(4-((2-(2,6-dioxopiperidin-3-yl)-1,3-dioxoisoindolin-4-ylamino)methyl)-2-fluorobenzyl)piperazin-1-yl)-N,N-dimethylpicolinamide] | 0.501 to 0.75
15 | CCC1CN(Cc2ccc(CNc3cccc4c3C(=O)N(C3CCC(=O)NC3=O)C4=O)cc2)C1 (stereo not shown) [Cpd 112, 2-(2,6-dioxopiperidin-3-yl)-4-(4-((3-ethylazetidin-1-yl)methyl)benzylamino)isoindoline-1,3-dione] | 0.2 to 0.5
16 | Cc1cc(CNc2cccc3c2C(=O)N(C2CCC(=O)NC2=O)C3=O)ccc1CN1CCC2(CC1)CC2 (stereo not shown) [Cpd 44, 4-(4-(6-azaspiro[2.5]octan-6-ylmethyl)-3-methylbenzylamino)-2-(2,6-dioxopiperidin-3-yl)isoindoline-1,3-dione] | < 0.2
17 | O=C1CCC(N2C(=O)c3cccc(NCc4ccc(CN5CCC6(CC5)CC6)cc4)c3C2=O)C(=O)N1 (stereo not shown) [Cpd 21, 4-(4-(6-azaspiro[2.5]octan-6-ylmethyl)benzylamino)-2-(2,6-dioxopiperidin-3-yl)isoindoline-1,3-dione] | 0.501 to 0.75

Second part, the compound after the results:

Row | IC50 [µM] | Structure (SMILES)
18 | < 0.2 | O=C1CCC(N2C(=O)c3cccc(NCc4ccc(CN5CC(c6ccccn6)C5)cc4)c3C2=O)C(=O)N1 (stereo not shown) [Cpd 16, 2-(2,6-dioxopiperidin-3-yl)-4-(4-((3-(pyridin-2-yl)azetidin-1-yl)methyl)benzylamino)isoindoline-1,3-dione]
19 | < 0.2 | CC(C)S(=O)(=O)C1CCN(Cc2ccc(CNc3cccc4c3C(=O)N(C3CCC(=O)NC3=O)C4=O)c(F)c2)CC1 (stereo not shown) [Cpd 174, 2-(2,6-dioxopiperidin-3-yl)-4-(2-fluoro-4-((4-(isopropylsulfonyl)piperidin-1-yl)methyl)benzylamino)isoindoline-1,3-dione]
20 | < 0.2 | CC(C)S(=O)(=O)N1CCN(Cc2ccc(CNc3cccc4c3C(=O)N(C3CCC(=O)NC3=O)C4=O)c(F)c2)CC1 (stereo not shown) [Cpd 175, 2-(2,6-dioxopiperidin-3-yl)-4-(2-fluoro-4-((4-(isopropylsulfonyl)piperazin-1-yl)methyl)benzylamino)isoindoline-1,3-dione]
21 | < 0.2 | CC(C)C1CCN(Cc2ccc(CNc3cccc4c3C(=O)N(C3CCC(=O)NC3=O)C4=O)cc2)CC1 (stereo not shown) [Cpd 5, 2-(2,6-dioxopiperidin-3-yl)-4-(4-((4-isopropylpiperidin-1-yl)methyl)benzylamino)isoindoline-1,3-dione]
22 | < 0.2 | Cc1cc(CNc2cccc3c2C(=O)N(C2CCC(=O)NC2=O)C3=O)ccc1CN1CCN(c2ccc(C#N)cc2Cl)CC1 (stereo not shown) [Cpd 61, 3-chloro-4-(4-(4-((2-(2,6-dioxopiperidin-3-yl)-1,3-dioxoisoindolin-4-ylamino)methyl)-2-methylbenzyl)piperazin-1-yl)benzonitrile]
23 | < 0.2 | CC(N1CCN(Cc2ccc(CNc3cccc4c3C(=O)N(C3CCC(=O)NC3=O)C4=O)cc2)CC1)C(F)(F)F (stereo not shown) [Cpd 71, 2-(2,6-dioxopiperidin-3-yl)-4-(4-((4-(1,1,1,-trifluoropropan-2-yl)piperazin-1-yl)methyl)benzylamino)isoindoline-1,3-dione]
24 | < 0.2 | O=C1CCC(N2C(=O)c3cccc(NCc4ccc(CN5CCC6(CCCO6)CC5)cc4)c3C2=O)C(=O)N1 (stereo not shown) [Cpd 90, 4-(4-(1-oxa-8-azaspiro[4.5]decan-8-ylmethyl)benzylamino)-2-(2,6-dioxopiperidin-3-yl)isoindoline-1,3-dione]
25 | < 0.2 | O=C1CCC(N2C(=O)c3cccc(NCc4ccc(CN5CCC(C6CCOCC6)CC5)cc4F)c3C2=O)C(=O)N1 (stereo not shown) [Cpd 215, 2-(2,6-dioxopiperidin-3-yl)-4-(2-fluoro-4-((4-(tetrahydro-2H-pyran-4-yl)piperidin-1-yl)methyl)benzylamino)isoindoline-1,3-dione]
26 | < 0.2 | NC(=O)c1ccc(N2CCN(Cc3ccc(CNc4cccc5c4C(=O)N(C4CCC(=O)NC4=O)C5=O)cc3)CC2)cc1 (stereo not shown) [Cpd 57, 4-(4-(4-((2-(2,6-dioxopiperidin-3-yl)-1,3-dioxoisoindolin-4-ylamino)methyl)benzyl)piperazin-1-yl)benzamide]
27 | < 0.2 | O=C1CCC(N2C(=O)c3cccc(NCc4ccc(CN5CCN(c6ncsn6)CC5)cc4)c3C2=O)C(=O)N1 (stereo not shown) [Cpd 196, 4-(4-((4-(1,2,4,-thiadiazol-3-yl)piperazin-1-yl)methyl)benzylamino)-2-(2,6-dioxopiperidin-3-yl)isoindoline-1,3-dione]
28 | < 0.2 | Cc1cc(CNc2cccc3c2C(=O)N(C2CCC(=O)NC2=O)C3=O)ccc1CN1CCC(C(C)C)CC1 (stereo not shown) [Cpd 40, 2-(2,6-dioxopiperidin-3-yl)-4-(4-((4-isopropylpiperidin-1-yl)methyl)-3-methylbenzylamino)isoindoline-1,3-dione]
29 | < 0.2 | O=C1CCC(N2C(=O)c3cccc(NCc4ccc(CN5CCC6(CCC6)CC5)cc4)c3C2=O)C(=O)N1 (stereo not shown) [Cpd 23, 4-(4-(7-azaspiro[3.5]nonan-7-ylmethyl)benzylamino)-2-(2,6-dioxopiperidin-3-yl)isoindoline-1,3-dione]
30 | < 0.2 | CCOC1(C)CCN(Cc2ccc(CNc3cccc4c3C(=O)N(C3CCC(=O)NC3=O)C4=O)c(F)c2)CC1 (stereo not shown) [Cpd 158, 2-(2,6-dioxopiperidin-3-yl)-4-(4-((4-ethoxy-4-methylpiperidin-1-yl)methyl)-2-fluorobenzylamino)isoindoline-1,3-dione]
31 | < 0.2 | O=C1CCC(N2C(=O)c3cccc(NCc4ccc(CN5CCC(F)(c6ccccn6)CC5)cc4F)c3C2=O)C(=O)N1 (stereo not shown) [Cpd 168, 2-(2,6-dioxopiperidin-3-yl)-4-(2-fluoro-4-((4-fluoro-4-(pyridin-2-yl)piperidin-1-yl)methyl)benzylamino)isoindoline-1,3-dione]
